Here are results for one compound from patent US20070249556A1, “METHOD OF TREATING INFLAMMATION” (priority 2006, published 2007).

Assay [1] has as its system neutrophils. The assay is described as follows: Inhibition of neutrophil chemotaxis (Boyden type chemotaxis chamber). It counts as cell-based, human. The note with it: isolated neutrophils, chemoattractant in lower chamber, one to three hours at 37 C, effective concentrations of inhibitor. Here is the method:
Neutrophils were isolated from peripheral blood donated by healthy volunteers. Twenty milliliters of whole blood containing ACD ([…]) as an anticoagulant was layered over twenty milliliters Ficoll-Pacque Plus (Stem Cell Technologies, Vancouver, BC) and centrifuged for 45 minutes at 1500 rpm. Following centrifugation, the red blood cell layer (also containing the granulocytes) at the bottom of the tube was retained in the centrifugation tube while the top layers were removed. The red blood cell and granulocytes were combined with an equal volume of 3% Dextran 500 (Amersham Biosciences, Uppsala, Sweden) and mixed gently. The red blood cells were allowed to sediment for 30 minutes. […] The cells were resuspended in Hank's Balanced Salt Solution (HBSS, Invitrogen, Grand Island, N.Y.), and counted on a hemacytometer. […] Cell viability was determined through trypan blue exclusion and was greater than 95%. […]
Chemoattractant compounds (e.g. fMLP) are prepared as 20 mM stock solutions and dissolved in either DMSO or water. […] The number of migrated cells is determined by microscopy and counting the number of cells per high powered field.
Inhibitors of neutrophil chemotaxis are identified using a Boyden type chemotaxis chamber. […] The number of migrated cells is determined by microscopy and counting the number of cells per high powered field.

Assay [2] relates to neutrophils. The assay is described as follows: LPS model of acute pulmonary inflammation in rat. Type of assay: in vivo. From the text: The administration of lipopolysaccharides (LPS) from gram-negative bacteria cell walls to the lungs of rats results in a rapid increase in the total number of leukocytes in the lumen of the lungs. The increase of neutrophils in the lung in the LPS model represents the conditions present a patients with chronic respiratory diseases such as cystic fibrosis, chronic bronchitis, emphysema, and certain subtypes of asthma. The LPS model of acute pulmonary inflammation is a well-established model for testing compounds having potential activities in treating inflammatory airway diseases.
Compound 11 (35 mg/kg) or vehicle (0.5% aqueous methylcellulose) was orally administered to groups of rats 15 minutes prior to pulmonary aerosolized LPS (˜2 micrograms/rat) or placebo (air) exposure (20 minute exposure) and 2.5 and 5 hours following the initial oral administration. Eight hours after pulmonary administration of aerosolized LPS, the lungs were lavaged to obtain bronchoalveolar lavage fluid, containing accumulated leukocytes.

SMILES strings stand for the structures.

`CCNC(=O)Nc1ncnc2c1ncn2C1OC(CCC(=O)O)C2OC(/C=C/c3ccccc3)OC21` (stereo not drawn) [Compound 11, trans-3-{6-[6-(3-ethyl-ureido)-purin-9-yl]-2-styryl-tetrahydro-furo[3,4-d][1,3]dioxol-4-yl}-propionic acid]: in assay [1], the “number of migrated neutrophils” value is recorded as “significant decrease”. In assay [2] (rats treated with compound compared with animals not receiving it, acute model of pulmonary inflammation), the “number of neutrophils found in the lumen of the lungs (FIG. 1)” value is “significant reduction”. Further, in assay [2] (rats, 35 mg/kg oral 15 min prior to aerosolized LPS and 2.5 and 5 hours after first dose, lavage 8 hours after LPS, vs vehicle and LPS, p<0.001), the “decrease in the number of neutrophils recovered in the lavage fluid” value came out at 56.6%.
